Assays:
dopamine transporter = biological target: T1, dopamine transporter (Rattus norvegicus, UniProt P23977); test: Dopamine transporter binding assay ([3H]GBR12935, rat striatal membranes); conditions: 10 μM test compound, radioligand [3H]GBR12935 1.0 nM, 25° C., 45 minutes
T1 construct: The receptor source was rat striatal membranes; from tissue; host or cells: striatum of male SD rats (Orient Korea), membrane preparation
Description: Rats (SD-rat, Orient Korea, male, 200-250 g) were sacrificed by decapitation. The striata were removed immediately and then stored at −80° C. until used. On the day of the manipulation, the striata were thawed and suspended in 20 volumes of buffer containing 50 mM Tris-HCl and 120 mM NaCl (pH 7.7). The suspension then was centrifuged at 17,700 rpm for 20 minutes. The pellet was resuspended in 20 volumes of the buffer and centrifuged at 17,700 rpm for 20 minutes. This procedure was repeated once more. The pellet obtained was resuspended in a few ml of the buffer and then homogenized. The concentration of the receptor source was determined by Lowry et al., 1951, J. Biol. Chem. 193:265-275.
Dopamine Transporter Assay Protocol
The dopamine reuptake transporter binding assay was performed according to the methods described in Madras et al., 1989, Mol. Pharmacol. 36(4):518-524, and Javitch et al., 1984, Mol. Pharmacol. 26(1):35-44. The receptor source was rat striatal membranes; the radioligand was GBR12935 [prolyene-2,3-^3H] […]

mice = test: Locomotor activity test (LMA); format: in vivo; conditions: ip, LMA measured 30 minutes after dosing, counts for 10 minutes, percent change from control
From the text: Psychostimulant activity was examined through the locomotor activity test (LMA). The LMA is a behavioral test developed to predict the efficacy of psychostimulants. The LMA is an attractive test for psychostimulants because it is sensitive and specific. All of the major classes of psychostimulants enhance ambulatory activities in the LMA, including methylphenidate, amphetamine, and many other psychostimulants.
Sixteen (16) mice (3 weeks CrjBgi:CD-1 (ICR) and 8 weeks C57BL/6) were purchased from Orient Bio Inc. (Gyeonggi-do, Korea). The mice were divided into a control group and a drug-treated group (eight (8) mice per group) by a block randomization method. Each of the group was placed in an empty cage and bred under environmental conditions of 19-25° C. with a relative humidity of 40-60% and a lighting cycle of 12 hr light/12 hr dark. Diet and water were supplied ad libitum. After one week of acclimation, the LMA test was carried out. The mice were habituated for over 1 hour in an LMA room before starting the LMA test. After habituation, the test compounds (10 or 30 mg/kg) were administered to the drug-treated group by intraperitoneal injection. At 30 minutes after i.p. dosing, LMA was measured using automated photobeams, Opto-Varimax® (Columbus Instruments, Ohio, US) and recorded on a computer. The total locomoter counts for each mouse were recorded for 10 minutes.
Statistical mean values for control and drug-treated groups were calculated and the percent changes from control were determined.

T1 sequence (P23977 whole entry): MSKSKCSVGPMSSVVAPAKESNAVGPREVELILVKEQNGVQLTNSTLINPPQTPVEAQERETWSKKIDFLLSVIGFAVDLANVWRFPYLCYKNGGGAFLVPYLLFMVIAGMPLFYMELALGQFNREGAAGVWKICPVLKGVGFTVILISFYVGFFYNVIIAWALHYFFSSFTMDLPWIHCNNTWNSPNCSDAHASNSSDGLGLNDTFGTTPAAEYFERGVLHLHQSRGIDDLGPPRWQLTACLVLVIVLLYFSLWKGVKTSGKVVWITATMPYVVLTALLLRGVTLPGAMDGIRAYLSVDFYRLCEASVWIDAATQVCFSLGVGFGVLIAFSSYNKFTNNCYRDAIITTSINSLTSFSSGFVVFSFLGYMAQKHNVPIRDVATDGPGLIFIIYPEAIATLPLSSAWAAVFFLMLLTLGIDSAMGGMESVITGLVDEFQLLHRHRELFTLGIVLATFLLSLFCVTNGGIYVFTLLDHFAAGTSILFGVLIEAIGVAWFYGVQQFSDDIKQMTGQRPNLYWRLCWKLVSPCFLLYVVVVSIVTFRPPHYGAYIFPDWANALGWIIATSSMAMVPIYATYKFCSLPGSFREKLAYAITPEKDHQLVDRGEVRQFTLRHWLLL

SMILES	inhibition at 10 µM (dopamine transporter)	% ambulation (mice; 30 mg/kg)	% ambulation (mice; 10 mg/kg)
Cl.NC(=O)NC(=O)OC[C@H](N)Cc1ccccc1 [Example 2, (2R)-2-Amino-3-phenylpropyl (aminocarbonyl)carbamate]	50.1%	118.7% (30 mg/kg, ip)	–
CC(C)N[C@@H](COC(=O)NC(N)=O)Cc1ccccc1.Cl [Example 3, (2R)-2-(Isopropylamino)-3-phenylpropyl (aminocarbonyl)carbamate]	40.1%	291.5% (30 mg/kg, ip)	–
CN(C)[C@@H](COC(=O)NC(N)=O)Cc1ccccc1.Cl [Example 4, (2R)-2-(Dimethylamino)-3-phenylpropyl (aminocarbonyl)carbamate]	38.4%	242.6% (30 mg/kg, ip)	–
NC(=O)NC(=O)OC[C@H](N)Cc1ccc(Cl)cc1Cl [Example 6, (2R)-2-Amino-3-(2,4-dichlorophenyl)propyl (aminocarbonyl)carbamate]	20.4%	–	–
NC(=O)NC(=O)OC[C@H](N)Cc1ccc(Cl)c(Cl)c1 [Example 7, (2R)-2-Amino-3-(3,4-dichlorophenyl)propyl (aminocarbonyl)carbamate]	41.2%	–	–
CN(C(N)=O)C(=O)OC[C@H](N)Cc1ccccc1 [Example 8]	20.3%	186.4% (30 mg/kg, ip)	–
NC(=O)NC(=O)OCC(N)Cc1ccc(Cl)cc1 (stereo not shown) [Example 9]	42.8%	–	–
CN[C@@H](COC(=O)NC(N)=O)Cc1ccccc1 [Example 14]	35.9%	–	–
CN(C(N)=O)C(=O)OC[C@@H](Cc1ccccc1)N(C)C [Example 15]	55.5%	–	202.2% (10 mg/kg, ip)
NC(=O)N(Cc1ccccc1)C(=O)OC[C@H](N)Cc1ccccc1 [Example 16, (2R)-2-Amino-3-phenylpropyl (aminocarbonyl)benzylcarbamate]	20.8%	–	–
CCN(C(N)=O)C(=O)OC[C@H](N)Cc1ccccc1 [Example 17, (2R)-2-Amino-3-phenylpropyl(aminocarbonyl)ethylcarbamate]	41.2%	–	–
CN(C(N)=O)C(=O)OC[C@H](N)Cc1ccccc1Cl [Example 18]	17.5%	–	–
CN(C(N)=O)C(=O)OC[C@H](N)Cc1ccc(F)cc1 [Example 19, 2-Amino-3-(4-fluorophenyl)propyl(aminocarbonyl)methylcarbamate]	34.3%	–	–
CN(C(N)=O)C(=O)OC[C@H](N)Cc1ccc(Cl)cc1Cl [Example 21, (2R)-2-amino-3-(2,4-dichlorophenyl)propyl (aminocarbonyl) Methylcarbamate]	31.5%	–	–
CN(C(N)=O)C(=O)OC[C@H](N)Cc1ccc(Cl)c(Cl)c1 [Example 22, (2R)-2-Amino-3-(3,4-dichlorophenyl)propyl (aminocarbonyl) Methylcarbamate]	37%	–	–
CN(C(N)=O)C(=O)OCC(N)Cc1ccccc1 (stereo not shown) [Example 24]	45%	–	–
N[C@@H](COC(=O)NC(=O)Nc1ccccc1)Cc1ccccc1 [Example 29, (2R)-2-Amino-3-phenylpropyl (anilinocarbonyl)carbamate]	50.7%	–	–

Source: patent US10888542B2 (SK BIOPHARMACEUTICALS CO., LTD., priority 2014, dated 2021)
